From patent US7319103B2, “Non-imidazole tertiary amines as histamine 3 receptor inhibitors for the treatment of cognitive and sleep disorders, obesity and other CNS disorders” (Athersys, Inc., priority 2004, dated 2008)

Assays:
mouse H3 receptor = mouse H3 receptor (Mus musculus, UniProt P58406); test: Radioligand competition binding assay, mouse H3 receptor; conditions: competition binding vs [3H]Nα-methylhistamine (~2 nM), membranes of cells expressing mouse H3 receptor
Procedure: (§1) Representative compounds of the present invention that were prepared by the procedures of the Examples were evaluated in binding assays against cells expressing the mouse and human H3 receptor by the following procedure.
(§2) Cells were washed with cold PBS buffer twice, scraped off the plates, and centrifuged at 1000×g for 5 minutes. Cells were resuspended in ice-cold buffer of 10 mM Tris, pH 7.4, 5 mM EDTA, protease inhibitor cocktail tablets (Roche Molecular Biochemicals) and incubated on ice for 10 minutes. The mixture was then homogenized with a dounce homogenizer or a polytron tissue grinder and centrifuged at 1000×g for 10 min at 4° C. The supernatant was centrifuged at 32,000×g for 30 min at 4° C. The membrane pellet was resuspended in a buffer of 50 mM Tris, pH 7.4 with protease inhibitor cocktail tablets and stored at −80° C. until use. Protein concentration was determined by the methods of Bradford.
(§3) Membranes were homogenized in buffer containing 50 mM Tris/HCl, 1 mM EDTA pH 7.4, and protease inhibitor cocktail tablets. Dissociation constants of radioligand (KD values) and maximum binding sites (Bmax) were determined in saturation binding experiments. Ki and IC50 were determined in competition binding assays using a fixed amount of radioligand.
(§4) Saturation binding assays were carried out in 96-well polypropylene plates in triplicate or quadruplicate. Reaction mixtures contained 100 μl of membrane suspension (˜100 μg/well), 50 μl of 4% DMSO, 50 μl of increasing amounts of [^3H]N^α-methylhistamine (final concentration of 0.01-20 nM). Nonspecific binding was defined with 10 uM clobenpropit. Competition binding assays were performed in a reaction mixture containing 100 μl of membrane suspension, 50 μl of [H]N^α-methylhistamine (final concentration of ˜2 nM), and 50 μl compounds. […] Incubations were carried out for 1.5 hours at room temperature. Reactions were terminated by rapid filtration over glass fibre GF/C filters (Perkin Elmers, MA) that had been presoaked in 0.3% PEI, using a Brandel cell harvester. The filters were washed with 500 ml of ice-cold buffer containing 50 mM Tris-HCl, pH 7.4, and were subsequently dried, impregnated with Meltilex wax scintillate (Perkin Elmers, MA) and counted with a Betaplate scintillation counter (Perkin Elmers, MA).
(§5) All data were analyzed by nonlinear least square curve fitting using Prism 4.0 software. The KD for [^3H]N^α-methylhistamine and the Bmax were derived from equation RL=RfL/(KD+L). RL is concentration of receptor-bound ligand at equilibrium, L is the free ligand concentration, Rf is the total receptor concentration. For competition binding experiments, IC50 (the concentration of compound producing 50% inhibition of specific binding) was derived from fitting to a 4-parameter logistic equation. Apparent Ki values were calculated using the Cheng-Prussof equation of Ki=IC50/(1+(L)/Kd), L is the ligand concentration. Agonist stimulation and antagonist inhibition in FLIPR were fitted to sigmoidal dose response using equation Y=Bottom+(Top-Bottom)/(1+10^((LogEC50-X))), X is the logarithm of concentration of compounds. Y is the response.

human H3 receptor = biological target: T1, human H3 receptor (Homo sapiens, UniProt Q9Y5N1); test: Radioligand competition binding assay, human H3 receptor (HT1080 cell membranes); conditions: competition binding vs [3H]Nα-methylhistamine (~2 nM), membranes of HT1080 cells expressing human H3 receptor
T1 construct: Expression of this receptor was provided by utilization of the RAGE methodology; endogenous in cells; host or cells: HT1080 (human fibrosarcoma) cells, H3 expression switched on by RAGE; co-transfected with chimeric G-protein Gqαi5
Procedure: as §1
An HT1080 cell line was produced that expresses the human H3 receptor. Expression of this receptor was provided by utilization of the RAGE methodology (Harrington et al., 2001) Nature Biotechol. 19:440-5. This cell line was transfected with the chimeric G-protein Gqαi5 (Conklin et al., 1993) Nature 363:274-6 to facilitate assessment of receptor activation through the analysis of intercellular Ca^++ levels using a fluorescence assay. The HT1080 cells expressing human histamine H3 receptor and Gqαi5 were grown in alpha-modified MEM containing 10% FBS, 3 ug/ml puromycin, 7 ug/ml blasticidin, and 3.2 uM methotrexate at 37° C. in 5% CO2/95% atmosphere.
as §2, §3, §4, §5

T1 sequence (Q9Y5N1 whole entry): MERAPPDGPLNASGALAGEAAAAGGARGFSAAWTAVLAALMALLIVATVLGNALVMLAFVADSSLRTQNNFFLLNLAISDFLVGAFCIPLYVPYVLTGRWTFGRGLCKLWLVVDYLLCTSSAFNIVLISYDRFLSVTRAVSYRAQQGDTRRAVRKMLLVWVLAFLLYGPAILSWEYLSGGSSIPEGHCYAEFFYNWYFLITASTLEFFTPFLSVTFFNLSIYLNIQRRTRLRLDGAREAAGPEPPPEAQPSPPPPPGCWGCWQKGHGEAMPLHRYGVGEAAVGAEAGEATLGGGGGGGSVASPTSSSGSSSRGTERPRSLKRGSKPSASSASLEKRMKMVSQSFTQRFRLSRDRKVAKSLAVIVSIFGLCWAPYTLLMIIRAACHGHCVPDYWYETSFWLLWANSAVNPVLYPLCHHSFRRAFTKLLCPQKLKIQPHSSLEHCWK
Sequence of mouse H3 receptor (P58406 whole entry): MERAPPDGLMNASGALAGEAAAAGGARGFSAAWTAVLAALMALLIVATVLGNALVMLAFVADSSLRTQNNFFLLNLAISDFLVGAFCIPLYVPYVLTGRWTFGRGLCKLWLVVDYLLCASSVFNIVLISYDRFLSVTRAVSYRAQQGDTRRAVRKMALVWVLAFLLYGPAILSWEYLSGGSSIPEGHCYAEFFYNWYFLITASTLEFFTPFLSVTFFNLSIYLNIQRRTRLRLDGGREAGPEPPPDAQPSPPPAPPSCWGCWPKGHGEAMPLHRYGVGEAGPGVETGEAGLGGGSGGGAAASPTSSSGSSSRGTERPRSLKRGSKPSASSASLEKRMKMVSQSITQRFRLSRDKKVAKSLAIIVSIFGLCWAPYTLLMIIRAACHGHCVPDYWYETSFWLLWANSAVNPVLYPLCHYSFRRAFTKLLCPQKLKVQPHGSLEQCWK

| Compound | Ki (mouse H3 receptor) | Ki (human H3 receptor) |
| --- | --- | --- |
| O[C@H]1CCN(CCc2cc3cc(-c4c5c(nc6ccnn46)CCC5)ccc3o2)C1 [1-{2-[5-(6,7-Dihydro-5H-1,4,8a-triaza-s-indacen-8-yl)-benzofuran-2-yl]-ethyl}-pyrrolidin-3-(S)-ol] | < 500 nM | < 50 nM |
| O[C@@H]1CCN(CCCOc2ccc(-c3c4c(nc5ccnn35)CCC4)cc2)C1 [1-{3-[4-(6,7-Dihydro-5H-1,4,8a-triaza-s-indacen-8-yl)-phenoxy]-propyl}-pyrrolidin-3-(R)-ol] | < 50 nM | < 50 nM |
| O[C@H]1CCN(CCCOc2ccc(-c3c4c(nc5ccnn35)CCC4)cc2)C1 [1-{3-[4-(6,7-Dihydro-5H-1,4,8a-triaza-s-indacen-8-yl)-phenoxy]-propyl}-pyrrolidin-3-(S)-ol] | < 50 nM | < 50 nM |
| c1cc2nc3c(c(-c4ccc5oc(CCN6CCOCC6)cc5c4)n2n1)CCC3 [8-[2-(2-Morpholin-4-yl-ethyl)-benzofuran-5-yl]-6,7-dihydro-5H-1,4,8a-triaza-s-indacene] | < 500 nM | < 50 nM |
| c1cc2nc3c(c(-c4ccc5oc(CCN6CCCCC6)cc5c4)n2n1)CCC3 [8-[2-(2-Piperidin-1-yl-ethyl)-benzofuran-5-yl]-6,7-dihydro-5H-1,4,8a-triaza-s-indacene] | < 500 nM | < 50 nM |
| c1cc2nc3c(c(-c4ccc5oc(CCN6CCCC6)cc5c4)n2n1)CCC3 [8-[2-(2-Pyrrolidin-1-yl-ethyl)-benzofuran-5-yl]-6,7-dihydro-5H-1,4,8a-triaza-s-indacene] | < 500 nM | < 50 nM |
| c1cc2nc3c(c(-c4ccc(OCCCN5CCOCC5)cc4)n2n1)CCC3 [8-[4-(3-Morpholin-4-yl-propoxy)-phenyl]-6,7-dihydro-5H-1,4,8a-triaza-s-indacene] | < 500 nM | < 50 nM |
| c1cc2nc3c(c(-c4ccc(OCCCN5CCCCC5)cc4)n2n1)CCC3 [8-[4-(3-Piperidin-1-yl-propoxy)-phenyl]-6,7-dihydro-5H-1,4,8a-triaza-s-indacene] | < 50 nM | < 50 nM |
| c1cc2nc3c(c(-c4ccc(OCCCN5CCCC5)cc4)n2n1)CCC3 [8-[4-(3-Pyrrolidin-1-yl-propoxy)-phenyl]-6,7-dihydro-5H-1,4,8a-triaza-s-indacene] | < 50 nM | < 50 nM |
| C[C@@H]1CCCN1CCc1cc2cc(-c3c4c(nc5ccnn35)CCC4)ccc2o1 [8-{2-[2-(2-(R)-Methyl-pyrrolidin-1-yl)-ethyl]-benzofuran-5-yl}-6,7-dihydro-5H-1,4,8a-triaza-s-indacene] | < 50 nM | < 50 nM |
| COC[C@@H]1CCCN1CCc1cc2cc(-c3c4c(nc5ccnn35)CCC4)ccc2o1 [8-{2-[2-(2-(S)-Methoxymethyl-pyrrolidin-1-yl)-ethyl]-benzofuran-5-yl}-6,7-dihydro-5H-1,4,8a-triaza-s-indacene] | < 50 nM | < 50 nM |
| CC1CCCN1CCc1cc2cc(-c3c4c(nc5ccnn35)CCC4)ccc2o1 (centres unmarked) [8-{2-[2-(2-Methyl-pyrrolidin-1-yl)-ethyl]-benzofuran-5-yl}-6,7-dihydro-5H-1,4,8a-triaza-s-indacene] | < 50 nM | < 50 nM |
| COC[C@H]1CCCN1CCc1cc2cc(-c3c4c(nc5ccnn35)CCC4)ccc2o1 [8-{2-[2-(R)-(2-Methoxymethyl-pyrrolidin-1-yl)-ethyl]-benzofuran-5-yl}-6,7-dihydro-5H-1,4,8a-triaza-s-indacene] | < 500 nM | < 500 nM |
| C[C@@H]1CCCN1CCCOc1ccc(-c2c3c(nc4ccnn24)CCC3)cc1Cl [8-{3-Chloro-4-[3-(2-(R)-methyl-pyrrolidin-1-yl)-propoxy]-phenyl}-6,7-dihydro-5H-1,4,8a-triaza-s-indacene] | < 50 nM | < 50 nM |
| CC1CCCN1CCCOc1ccc(-c2c3c(nc4ccnn24)COC3)cc1 (centres unmarked) [8-{4-[3-(2-Methyl-pyrrolidin-1-yl)-propoxy]-phenyl}-5H,7H-6-oxa-1,4,8a-triaza-s-indacene] | < 50 nM | < 50 nM |
| CC1CCCN1CCCOc1ccc(-c2c3c(nc4ccnn24)CCC3)cc1 (centres unmarked) [8-{4-[3-(2-Methyl-pyrrolidin-1-yl)-propoxy]-phenyl}-6,7-dihydro-5H-1,4,8a-triaza-s-indacene] | < 50 nM | < 50 nM |
| c1cc2nc3c(c(-c4ccc5oc(CCN6CCOCC6)cc5c4)n2n1)CCCC3 [9-[2-(2-Morpholin-4-yl-ethyl)-benzofuran-5-yl]-5,6,7,8-tetrahydro-pyrazolo[5,1-b]quinazoline] | < 500 nM | < 50 nM |
| c1cc2nc3c(c(-c4ccc5oc(CCN6CCCCC6)cc5c4)n2n1)CCCC3 [9-[2-(2-Piperidin-1-yl-ethyl)-benzofuran-5-yl]-5,6,7,8-tetrahydro-pyrazolo[5,1-b]quinazoline] | < 5000 nM | < 50 nM |
| c1cc2nc3c(c(-c4ccc5oc(CCN6CCCC6)cc5c4)n2n1)CCCC3 [9-[2-(2-Pyrrolidin-1-yl-ethyl)-benzofuran-5-yl]-5,6,7,8-tetrahydro-pyrazolo[5,1-b]quinazoline] | < 5000 nM | < 500 nM |
| c1cc2nc3c(c(-c4ccc(OCCCN5CCOCC5)cc4)n2n1)CCCC3 [9-[4-(3-Morpholin-4-yl-propoxy)-phenyl]-5,6,7,8-tetrahydro-pyrazolo[5,1-b]quinazoline] | < 50 nM | < 50 nM |
| c1cc2nc3c(c(-c4ccc(OCCCN5CCCCC5)cc4)n2n1)CCCC3 [9-[4-(3-Piperidin-1-yl-propoxy)-phenyl]-5,6,7,8-tetrahydro-pyrazolo[5,1-b]quinazoline] | < 50 nM | < 50 nM |
| c1ccc2c(-c3ccc(OCCCN4CCCC4)cc3)c3c(nc2c1)CCCC3 [9-[4-(3-Pyrrolidin-1-yl-propoxy)-phenyl]-1,2,3,4-tetrahydro-acridine] | < 500 nM | < 50 nM |
| c1cc2nc3c(c(-c4ccc(OCCCN5CCCC5)cc4)n2n1)CCCC3 [9-[4-(3-Pyrrolidin-1-yl-propoxy)-phenyl]-5,6,7,8-tetrahydro-pyrazolo[5,1-b]quinazoline] | < 50 nM | < 50 nM |
| CC1CCCN1CCc1cc2cc(-c3c4c(nc5ccnn35)CCCC4)ccc2o1 (centres unmarked) [9-{2-[2-(2-Methyl-pyrrolidin-1-yl)-ethyl]-benzofuran-5-yl}-5,6,7,8-tetrahydro-pyrazolo[5,1-b]quinazoline] | < 500 nM | < 50 nM |
| C[C@@H]1CCCN1CCCOc1ccc(-c2c3c(nc4ccnn24)CCCC3)cc1 [9-{4-[3-(2-(R)-Methyl-pyrrolidin-1-yl)-propoxy]-phenyl}-5,6,7,8-tetrahydro-pyrazolo[5,1-b]quinazoline] | < 50 nM | < 50 nM |
| CC1CCCN1CCCOc1cccc(-c2c3c(nc4ccnn24)CCCCC3)c1 (centres unmarked) [10-{3-[3-(2-Methyl-pyrrolidin-1-yl)-propoxy]-phenyl}-6,7,8,9-tetrahydro-5H-1,4,10a-triaza-cyclohepta[f]indene] | < 5000 nM |  |
| COCCNCCCOc1ccc(-c2c3c(nc4ccnn24)CCCCC3)cc1 [(2-Methoxy-ethyl)-{3-[4-(6,7,8,9-tetrahydro-5H-1,4,10a-triaza-cyclohepta[f]inden-10-yl)-phenoxy]-propyl}-amine] | < 5000 nM |  |
| CCN(CC)CCCOc1cccc(-c2c3c(nc4ccnn24)CCCCC3)c1 [Diethyl-{3-[3-(6,7,8,9-tetrahydro-5H-1,4,10a-triaza-cyclohepta[f]inden-10-yl)-phenoxy]-propyl}-amine] | < 5000 nM |  |
